In patent publication US7871805B2, “Glucose dehydrogenase” (Toyo Boseki Kabushiki Kaisha, priority 2006, dated 2011):
Like-named read-outs stand apart in the source and are kept apart here.

Legend:
[1] = test system: GDH derived from NBRC32032; assay: Substrate specificity of purified GDH (DCPIP activity assay); type: biochemical, Penicillium italicum; conditions: for Relative activity: substrate final concentration 4 mM, activity using glucose as substrate made 100%; for action of enzyme upon substrate (in words): substrate 4 mM
Protocol: (§1) The present invention is also characterized by high substrate specificity, the action upon maltose is less than 1% of the action upon glucose, and the action upon galactose is less than 2% of the action upon glucose. The action referred to herein indicates the GDH activity at a substrate concentration of 4 mM, it is measured according to Test Example described later, and in a reaction solution composition used, for the substrate concentration, the final concentration is adjusted to 4 mM.
(§2) A reaction reagent is made by mixing 15.8 mL of the PIPES buffer, 0.2 mL of the DCPIP solution and 4 mL of the D-glucose solution.
(§3) The reaction reagent (2.9 mL) is preliminarily heated at 37° C. for 5 minutes. The GDH solution (0.1 mL) is added and gently mixed, subsequently the change of absorbance at 600 nm is recorded for 5 minutes using a spectrophotometer controlled to 37° C. using water as a control, and the change of absorbance per one minute (ΔODTEST) is calculated from a linear portion of the record. The solvent in which GDH will be dissolved in place of the blinded GDH solution is added to the reagent mixture, and the change of absorbance (ΔODBLANK) per one minute is measured. The GDH activity is calculated from these values according to the following formula. One unit (U) in the GDH activity is defined as the amount of the enzyme which reduces 1 μmol DCPIP for one minute in the presence of 200 mM D-glucose. Activity (U/mL)=[—(ΔODTEST−ΔODBLANK)×3.0×dilution scale]/(16.3×0.1×1.0)
(§4) In order to know the substrate specificity of the purified GDH solutions derived from NBRC6231 and NBRC32032 obtained in Example 1, the activity was measured using the reaction reagent in which the substance shown in Table had been dissolved at a final concentration of 4 mM.

[2] = test system: GDH derived from NBRC6231; assay: as above; type: biochemical, Penicillium lilacinoechinulatum; conditions: for Relative activity: substrate final concentration 4 mM, activity using glucose as substrate made 100%; for action of enzyme upon substrate (in words): substrate 4 mM
Protocol: as §1, §2, §3, §4

[3] = test system: GDH derived from NBRC32032; assay: Effects of chemicals on GDH activity; type: biochemical, Penicillium italicum
[4] = test system: GDH derived from NBRC6231; assay: Effects of chemicals on GDH activity; type: biochemical, Penicillium lilacinoechinulatum
[5] = 2 mM, inhibited = 10% or more activity lowering, strong = 50% or more, GDH from NBRC6231
[6] = additive final concentration 2 mM, activity with no chemical made 100, GDH from NBRC6231
[7] = 2 mM, inhibited = 10% or more activity lowering, strong = 50% or more, GDH from NBRC32032
[8] = additive final concentration 2 mM, activity with no chemical made 100, GDH from NBRC32032

Compound	Relative activity [1]	Relative activity [2]	Relative activity [3]	Relative activity [4, 6]	also measured
OC[C@H]1O[C@H](O[C@H]2[C@H](O)[C@@H](O)C(O)O[C@@H]2CO)[C@H](O)[C@@H](O)[C@@H]1O (mixture of isomers) [Maltose]	0.2%	0.5%	–	–	–
O=CC[C@@H](O)[C@H](O)[C@H](O)CO [2-deoxy-D-glucose]	17.2%	14.3%	–	–	action of enzyme upon substrate (in words) [1]: acted upon; action of enzyme upon substrate (in words) [2]: acted upon
O=[N+]([O-])[O-].[Ag+] [AgNO3, silver nitrate]	–	–	15.0	20.9	inhibitory effect (in words) [3]: strong inhibitory effect; inhibitory effect (in words) [4, 5]: strong inhibitory effect
O=C[C@@H](O)[C@H](O)[C@H](O)CO [Arabinose]	0.2%	0.2%	–	–	–
CC(=O)[O-].CC(=O)[O-].[Ba+2] [Ba(OAc)2]	–	–	106	106	–
OB(O)O [Borate]	–	–	102	111	–
[Ca+2].[Cl-].[Cl-] [CaCl2]	–	–	103	103	–
CC(=O)[O-].CC(=O)[O-].[Cd+2] [Cd(OAc)2, cadmium acetate]	–	–	41.4	41.0	inhibitory effect (in words) [3]: strong inhibitory effect; inhibitory effect (in words) [4, 5]: strong inhibitory effect
[Cl-].[Cl-].[Co+2] [CoCl2]	–	–	102	–	Relative activity [4]: 94.1
O=S(=O)([O-])[O-].[Cu+2] [CuSO4, copper sulfate]	–	–	4.5	2.2	inhibitory effect (in words) [3]: strong inhibitory effect; inhibitory effect (in words) [4, 5]: strong inhibitory effect
O=C(O)CN(CCN(CC(=O)O)CC(=O)O)CC(=O)O [EDTA]	–	–	104	–	Relative activity [4]: 113
[Cl][Fe]([Cl])[Cl] [FeCl3, iron chloride (III)]	–	–	77.5	–	inhibitory effect (in words) ([3]; 2 mM): inhibited; Relative activity [4]: 106
O=C(CO)[C@@H](O)[C@H](O)[C@H](O)CO [Fructose]	0.3%	0.2%	–	–	–
O=C[C@H](O)[C@@H](O)[C@@H](O)[C@H](O)CO [Galactose]	0.6%	1.0%	–	–	–
OCC(O)CO [Glycerin]	1.7%	0.1> %	–	–	–
NO [Hydroxylamine]	–	–	–	81.5	inhibitory effect (in words) [3, 7]: inhibitory effect; Relative activity [3, 8]: 79.1; inhibitory effect (in words) [4, 5]: inhibitory effect
NC(=O)CI [Iodoacetamide]	–	–	101	–	Relative activity [4]: 111
OC[C@H]1O[C@H](O[C@H]2[C@H](O)[C@@H](O)[C@@H](O[C@H]3[C@H](O)[C@@H](O)[C@@H](O[C@H]4[C@H](O)[C@@H](O)C(O)O[C@@H]4CO)O[C@@H]3CO)O[C@@H]2CO)[C@H](O)[C@@H](O)[C@@H]1O (stereo partly shown) [Maltotetraose]	1.6%	0.1> %	–	–	–

Compound	Relative activity [1]	Relative activity [2]	Relative activity [3]	Relative activity [4, 6]	also measured
OC[C@H]1O[C@@](CO)(O[C@H]2O[C@H](CO)[C@@H](O)[C@H](O)[C@H]2O)[C@@H](O[C@H]2O[C@H](CO)[C@@H](O)[C@H](O)[C@H]2O)[C@@H]1O [Melezitose]	0.5%	0.2%	–	–	–
[Cl-].[Cl-].[Mg+2] [MgCl2]	–	–	102	99.7	–
[Cl][Mn][Cl] [MnCl2]	–	–	99.1	93.4	–
O=C(O)CI [Monoiodoacetic acid]	–	–	73.3	–	inhibitory effect (in words) [3]: inhibitory effect; Relative activity [4]: 68.7; inhibitory effect (in words) [4]: inhibitory effect
CCN1C(=O)C=CC1=O [N-ethylmaleimide]	–	–	–	86.8	inhibitory effect (in words) [3, 7]: inhibitory effect; Relative activity [3, 8]: 87.8; inhibitory effect (in words) [4, 5]: inhibitory effect
[F-].[Na+] [NaF]	–	–	102	111	–
[N-]=[N+]=[N-].[Na+] [NaN3, sodium azide]	–	–	97.8	89.3	inhibitory effect (in words) [4, 5]: inhibited
[Cl][Ni][Cl] [NiCl2]	–	–	101	96.6	–
O=C[C@H](O)[C@H](O)[C@H](O)CO [Ribose]	0.2%	0.1> %	–	–	–
O=C(CO)[C@H](O)[C@@H](O)[C@H](O)CO [Sorbose]	0.5%	0.1> %	–	–	–
OC[C@H]1O[C@@](CO)(O[C@H]2O[C@H](CO)[C@@H](O)[C@H](O)[C@H]2O)[C@@H](O)[C@@H]1O [Sucrose]	1.1%	0.6%	–	–	–
OC[C@H]1O[C@H](O[C@H]2O[C@H](CO)[C@@H](O)[C@H](O)[C@H]2O)[C@H](O)[C@@H](O)[C@@H]1O [Trehalose]	0.1> %	0.3%	–	–	–
O=C[C@H](O)[C@@H](O)[C@H](O)CO [Xylose]	10.4%	10.1%	–	–	action of enzyme upon substrate (in words) [1]: acted upon; action of enzyme upon substrate (in words) [2]: acted upon
[Cl-].[Cl-].[Zn+2] [ZnCl2]	–	–	75.1	76.2	–
c1cnc2c(c1)ccc1cccnc12 [o-phenanthroline]	–	–	103	–	Relative activity [4]: 106
c1ccc(-c2ccccn2)nc1 [α,α′-dipyridyl]	–	–	102	–	Relative activity [4]: 109
Maltotriose	1.0%	0.2%	–	–	–
